Measured values published in patent EP3211076A1, “NOVEL ALPHA-GLUCOSIDASE” (Showa Sangyo Co., Ltd., priority 2014, dated 2016).

Tests used:
[1] = test system: α-Glucosidase Derived from NBRC4239 Strain; assay: Substrate specificity of the enzyme; assay type: biochemical, Aspergillus sojae; conditions: 40°C, pH 6.0; for Relative Activity* (%): substrate 10mM, relative to decomposition rate of 10 mM maltose
Experimental: The substrate specificity of the present enzyme was evaluated at the conditions of 40°C and pH 6.0.

[2] = test system: α-Glucosidase Derived from NBRC4239 Strain; assay: Effect of metal ion on the enzyme activity; assay type: biochemical, Aspergillus sojae
Experimental: The hydrolytic activity using maltose as the substrate was measured as shown below. A 20 mM maltose (50µL) dissolved in the 20mM MES buffer (pH 6.0) and an enzyme solution diluted by the buffer are mixed and incubated at 40°C for 30 min., then, 1 µL of 10% oxalic acid solution was added and heated at 100°C for 10 min. to stop the reaction. The amount of liberated glucose in the reaction solution was measured by Glucose CII Test Wako (produced by Wako Pure Chemical Industries, Ltd.). One unit of α-glucosidase activity was defined as the amount of enzyme that catalyzes hydrolysis of 1 µmol of maltose per minute. The effect of various metal ions on the present enzyme was studied. The enzyme activity was analyzed according to <Analysis Method of α-Glucosidase Activity>.

| Compound | hydrolytic activity toward substrate (in words) [1] | Relative Activity* (%) [1] | Specific Activity (%) ([2]; Concentration 5 mM added to reaction mixture, no addition = 100) | effect on the enzyme activity (in words) ([2]; addition of ions to the reaction mixture) |
| --- | --- | --- | --- | --- |
| OC[C@H]1O[C@H](O[C@H]2[C@H](O)[C@@H](O)C(O)O[C@@H]2CO)[C@H](O)[C@@H](O)[C@@H]1O (mixture of isomers) [maltose] | well hydrolytic activities | 100% | – | – |
| O=C(O)CN(CCN(CC(=O)O)CC(=O)O)CC(=O)O [EDTA] | – | – | 85% | inhibited the activity somewhat |
| OC[C@H]1O[C@H](OC[C@H]2OC(O)[C@H](O)[C@@H](O)[C@@H]2O)[C@H](O)[C@@H](O)[C@@H]1O (stereo partly drawn) [isomaltose] | well hydrolytic activities | 163% | – | – |
| OC[C@H]1O[C@H](OC[C@H]2O[C@H](OC[C@H]3O[C@H](OC[C@H]4OC(O)[C@H](O)[C@@H](O)[C@@H]4O)[C@H](O)[C@@H](O)[C@@H]3O)[C@H](O)[C@@H](O)[C@@H]2O)[C@H](O)[C@@H](O)[C@@H]1O (stereo partly drawn) [isomaltotetraose] | – | 168% | – | – |
| OC[C@H]1O[C@H](OC[C@H]2O[C@H](OC[C@H]3OC(O)[C@H](O)[C@@H](O)[C@@H]3O)[C@H](O)[C@@H](O)[C@@H]2O)[C@H](O)[C@@H](O)[C@@H]1O (stereo partly drawn) [isomaltotriose] | – | 161% | – | – |
| OC[C@H]1O[C@H](O[C@H]2[C@H](O)[C@@H](O)[C@@H](O[C@H]3[C@H](O)[C@@H](O)[C@@H](O[C@H]4[C@H](O)[C@@H](O)[C@@H](O[C@H]5[C@H](O)[C@@H](O)[C@@H](O[C@H]6[C@H](O)[C@@H](O)[C@@H](O[C@H]7[C@H](O)[C@@H](O)C(O)O[C@@H]7CO)O[C@@H]6CO)O[C@@H]5CO)O[C@@H]4CO)O[C@@H]3CO)O[C@@H]2CO)[C@H](O)[C@@H](O)[C@@H]1O (stereo partly drawn) [maltoheptaose] | – | 57% | – | – |
| OC[C@H]1O[C@H](O[C@H]2[C@H](O)[C@@H](O)[C@@H](O[C@H]3[C@H](O)[C@@H](O)[C@@H](O[C@H]4[C@H](O)[C@@H](O)[C@@H](O[C@H]5[C@H](O)[C@@H](O)[C@@H](O[C@H]6[C@H](O)[C@@H](O)C(O)O[C@@H]6CO)O[C@@H]5CO)O[C@@H]4CO)O[C@@H]3CO)O[C@@H]2CO)[C@H](O)[C@@H](O)[C@@H]1O (stereo partly drawn) [maltohexaose] | – | 49% | – | – |
| OC[C@H]1O[C@H](O[C@H]2[C@H](O)[C@@H](O)[C@@H](O[C@H]3[C@H](O)[C@@H](O)[C@@H](O[C@H]4[C@H](O)[C@@H](O)[C@@H](O[C@H]5[C@H](O)[C@@H](O)C(O)O[C@@H]5CO)O[C@@H]4CO)O[C@@H]3CO)O[C@@H]2CO)[C@H](O)[C@@H](O)[C@@H]1O (stereo partly drawn) [maltopentaose] | – | 41% | – | – |
| OC[C@H]1O[C@H](O[C@H]2[C@H](O)[C@@H](O)[C@@H](O[C@H]3[C@H](O)[C@@H](O)[C@@H](O[C@H]4[C@H](O)[C@@H](O)C(O)O[C@@H]4CO)O[C@@H]3CO)O[C@@H]2CO)[C@H](O)[C@@H](O)[C@@H]1O (stereo partly drawn) [maltotetraose] | a little low | 16% | – | – |
| OC[C@H]1O[C@H](O[C@H]2[C@H](O)[C@@H](O)[C@@H](O[C@H]3[C@H](O)[C@@H](O)C(O)O[C@@H]3CO)O[C@@H]2CO)[C@H](O)[C@@H](O)[C@@H]1O (stereo partly drawn) [maltotriose] | – | 45% | – | – |
| OC[C@H]1O[C@H](O[C@H]2[C@H](O)[C@@H](CO)OC(O)[C@@H]2O)[C@H](O)[C@@H](O)[C@@H]1O (stereo partly drawn) [nigerose] | well hydrolytic activities | 153% | – | – |
| OC[C@H]1O[C@H](OC[C@H]2O[C@H](O[C@H]3[C@H](O)[C@@H](O)C(O)O[C@@H]3CO)[C@H](O)[C@@H](O)[C@@H]2O)[C@H](O)[C@@H](O)[C@@H]1O (stereo partly drawn) [panose] | – | 153% | – | – |
| OC[C@H]1O[C@H](O[C@H]2O[C@H](CO)[C@@H](O)[C@H](O)[C@H]2O)[C@H](O)[C@@H](O)[C@@H]1O [trehalose] | very slight | 1% | – | – |
| OC[C@H]1O[C@@H]2O[C@H]3[C@H](O)[C@@H](O)[C@@H](O[C@H]4[C@H](O)[C@@H](O)[C@@H](O[C@H]5[C@H](O)[C@@H](O)[C@@H](O[C@H]6[C@H](O)[C@@H](O)[C@@H](O[C@H]7[C@H](O)[C@@H](O)[C@@H](O[C@H]1[C@H](O)[C@H]2O)O[C@@H]7CO)O[C@@H]6CO)O[C@@H]5CO)O[C@@H]4CO)O[C@@H]3CO [α-cyclodextrine] | well hydrolytic activities | 58% | – | – |
| OC[C@H]1O[C@@H]2O[C@H]3[C@H](O)[C@@H](O)[C@@H](O[C@H]4[C@H](O)[C@@H](O)[C@@H](O[C@H]5[C@H](O)[C@@H](O)[C@@H](O[C@H]6[C@H](O)[C@@H](O)[C@@H](O[C@H]7[C@H](O)[C@@H](O)[C@@H](O[C@H]8[C@H](O)[C@@H](O)[C@@H](O[C@H]1[C@H](O)[C@H]2O)O[C@@H]8CO)O[C@@H]7CO)O[C@@H]6CO)O[C@@H]5CO)O[C@@H]4CO)O[C@@H]3CO [β-cyclodextrine] | well hydrolytic activities | 48% | – | – |
| OC[C@H]1O[C@@H]2O[C@H]3[C@H](O)[C@@H](O)[C@@H](O[C@H]4[C@H](O)[C@@H](O)[C@@H](O[C@H]5[C@H](O)[C@@H](O)[C@@H](O[C@H]6[C@H](O)[C@@H](O)[C@@H](O[C@H]7[C@H](O)[C@@H](O)[C@@H](O[C@H]8[C@H](O)[C@@H](O)[C@@H](O[C@H]9[C@H](O)[C@@H](O)[C@@H](O[C@H]1[C@H](O)[C@H]2O)O[C@@H]9CO)O[C@@H]8CO)O[C@@H]7CO)O[C@@H]6CO)O[C@@H]5CO)O[C@@H]4CO)O[C@@H]3CO [γ-cyclodextrine] | a little low | 14% | – | – |
| kojibiose | well hydrolytic activities | 91% | – | – |
